Results on 17 compounds are retold here after US6900200B2, “Tricyclic hydroxy carboxamides and derivatives thereof tocolytic oxytocin receptor antagonists” (Wyeth, priority 2001, dated 2005).

Data set [1] addresses T1, human vasopressin V2 receptor subtype (Homo sapiens, UniProt P30518).
T1 construct: host or cells: CHO cells, pZeoSV vector
As to the kind of experiment: Vasopressin binding in CHO cell membranes expressing human vasopressin V2 subtype receptors ([3H]arginine vasopressin radioligand binding). The following applies: for inhibition at 0.1 µM: @ 100 nM; for IC50: value printed in parentheses. The source says: Vasopressin Binding in Chinese Hamster Ovary Cell Membranes Expressing Human Vasopressin V2 Subtype Receptors
Chinese Hamster Ovary (CHO) cells stably transfected with the human V2 subtype receptors were obtained from M. Thibonnier, Case Western Reserve University School of Medicine, Cleveland, Ohio.
A. Passaging and Amplification of Cells
CHO cells transfected with the human vasopressin V2 subtype receptors obtained from M. Thibonnier (pZeoSV vector) are allowed to grow to confluency (approx. >90%) in T-150 flasks under sterile conditions, in a cell culture medium ofF-12 Nutrient Mixture (HAM) with L-glutamine (Gibco Cat. #11765-054) containing 15 mM HEPES (Gibco Cat. #15630-080), 1% antibiotic/antimycotic (add 5 mL 100×, Gibco Cat. #15240-062 per 500 mL F-12), 250 μg/mL Zeocin (add 1.25 mL of 100 mg/mL Invitrogen R-250-01 per 500 mL F-1 2) and 10% Fetal Bovine Serum (Qualified, heat inactivated, Gibco Cat. #16140-063). The medium is removed by aspiration and the cells washed with 10 mL of Hank's Balanced Salt solution (Gibco Cat. #14175-095). The salt solution is removed by aspiration and the cells trypsinized with 5 mL of trypsin-EDTA (0.05% trypsin, 0.53 mM EDTA-4Na, Gibco Cat. #25300-070) for 1 min. The trypsin is removed by aspiration and the cells dislodged by tapping. Cell Culture medium (e.g. 30 mL for 1:30 split) is immediately added and mixed well to inactivate trypsin. 1 mL of detached cells is added to new culture flasks containing fresh Cell Culture medium (e.g. into 25 mL per T-150 flask), and mixed gently. The cells are incubated at 37° C. in 5% CO2. The medium is changed at 3 to 4 day interval (or as appropriate). The cells grow to confluency (approx. >75%-95%) within 7-8 days. All steps are done under sterile conditions.
The cells are washed twice gently with Hank's Balanced Salt solution (e.g. use 10 mL per T-150 flask). The excess solution is removed and the cells bathed for 15-30 min. in an enzyme-free Cell Dissociation Buffer (e.g. use 8 mL Hank's Based, Gibco Cat. # 13150-016 per T-150 flask) until cells are loosened. The contents are transferred to centrifuge tubes (50 mL) kept in ice bath. All subsequent steps are done at 4° C. The tubes are centrifuged at 300×g for 15 min (1380 rpm on SORVAL, Model RT6000D, using the rotor for 50 mL tubes). The supernatant is discarded and the cells suspended in homogenizing buffer (10 mM Tris-HCl containing 0.25 M sucrose and 1 mM EDTA, pH 7.4) ensuring that the volume of the buffer is about ten times the volume of the cell pellet. The cells are pooled into a centrifuge tube (50 mL) and homogenized with Polytron at setting 6 for 10 sec. The homogenate is transferred into a Potter-Elvjehm homogenizer and homogenized with 3 strokes. The homogenate is centrifuged at 1500×g for 60 min at 4° C. (3100 rpm using SORVAL, model RT6000D, using the rotor for 50 mL tubes). The pellet is discarded. The supernatant is centrifuged at 100,000×g for 60 min. at 4° C. (Beckman L8-80M ultracentrifuge; spin at 37,500 rpm with rotor type 70 Ti for 50 mL tubes; 38,000 rpm with type 80Ti for 15 mL tubes; or 35,800 rpm with rotor type 45Ti). The supernantant is discarded and the pellet suspended in 3 to 4 mL of Tris buffer (50 mM TRIS—HCl, pH 7.4). The protein content is estimated by the Bradford or Lowry method. The volume of the membrane suspension is adjusted with the membrane buffer (50 mM Tris-HCl containing 0.1% BSA and 0.1 mM PMSF) to give 3.0 mg/mL (or as appropriate) of protein. The membranes are aliquoted and stored at −70. ° C.
C. Radioligand Binding Assay
In wells of a 96-well format microtiter plate, is added 90, 110 or 130 μL (to make up a final volume of 200 μL) of assay buffer containing 50 mM of Tris-HCl (pH 7.4), […], 1 mg % aprotinin, 1 mg % leupeptin, 2 mg % 1,10-phenanthroline, 10 mg % trypsin inhibitor, and 0.1 mM PMSF. The inhibitors are added on the day of the experiment. […]

In general, inhibition refers to the drop in the measured response relative to a control, in per cent. For orientation: melting point means the temperature of the solid-liquid transition. On to `COCCN1CCN(C(=O)c2ccc3n2Cc2ccccc2N(C(=O)c2ccc(-c4ccccc4C(F)(F)F)c(C)c2)C3)CC1` [Example 7, Methyl 2-{4-[(10-{[2-methyl-2′-trifluoromethyl-[1,1′-biphenyl]-4-yl]carbonyl}-10,11-dihydro-5H-pyrrolo[2,1-c][1,4]benzodiazepin-3-yl)carbonyl]piperazin-1-yl}ethyl ether], for which the melting point lay in the range of 140 to 144 °C. In data set [1], this compound yielded an inhibition at 0.1 µM of 16%.

For orientation: IC50 means the concentration that inhibits the measured activity by half. For “{(2S)-1-[(10-{[2-Methoxy-2(trifluoromethyl)[1,1′-biphenyl]-4-yl]carbonyl}-10,11-dihydro-5H-pyrrolo[2,1-c][1,4]benzodiazepin-3-yl)carbonyl]pyrrolidin-2-yl}-methanol [Example 36]”, the 50% inhibitory concentration (IC50) in data set [1] stood at 2.07 µM. `COc1cc(C(=O)N2Cc3ccc(C(=O)N4CCN(CCO)CC4)n3Cc3ccccc32)ccc1-c1cccc2ccccc12` [Example 41, [4-(2-Hydroxyethyl)-1-piperazinyl]{10-[3-methoxy-4-(1-naphthyl)benzoyl]-10,11-dihydro-5H-pyrrolo[2,1-c][1,4]benzodiazepin-3-yl}methanone] yielded an inhibition at 0.1 µM in data set [1] of 35%.

As to `COc1ccccc1-c1ccc(C(=O)N2Cc3ccc(C(=O)N4CCN(CCO)CC4)n3Cc3ccccc32)cc1OC` [Example 43, {10-[(2,2′-Dimethoxy[1,1′-biphenyl]-4-yl)carbonyl]-10,11-dihydro-5H-pyrrolo[2,1-c][1,4]benzodiazepin-3-yl}[4-(2-hydroxyethyl)-1-piperazinyl]methanone], testing at 0.1 µM in data set [1] gave an inhibition of 27%. The compound `COc1cc(C(=O)N2Cc3ccc(C(=O)N4CCN(CCO)CC4)n3Cc3ccccc32)ccc1-n1c(C)ccc1C` [Example 52, {10-[4-(2,5-Dimethyl-1H-pyrrol-1-yl)-3-methoxybenzoyl]-10,11-dihydro-5H-pyrrolo[2,1-c][1,4]benzodiazepin-3-yl}[4-(2-hydroxyethyl)-1-piperazinyl]methanone] registered an inhibition at 0.1 µM in data set [1] of 3%. With `CC(=O)OCC(CN(C)C(=O)c1ccc2n1Cc1ccccc1N(C(=O)c1ccc(-c3ccccc3C(F)(F)F)c(C)c1)C2)OC(C)=O` (stereo not drawn) [Example 13, 2-(Acetyloxy)-1-({methyl[(10-{[2-methyl-2′-trifluoromethyl-[1,1′-biphenyl]-4-yl]carbonyl}-10,11-dihydro-5H-pyrrolo[2,1-c][1,4]benzodiazepin-3-yl)carbonyl]amino}methyl)ethyl acetate], the concentration for half-maximal inhibition (IC50) in data set [1] is 0.99 µM. On the same count and under the same terms, the figure for `Cc1cc(C(=O)N2Cc3ccc(C(=O)N(CCO)CCO)n3Cc3ccccc32)ccc1-c1ccccc1C(F)(F)F` [Example 1, 10-[(2-Methyl-2′-trifluoromethyl-[1,1′-biphenyl]-4-yl)carbonyl]-10,11-dihydro-5H-pyrrolo[2,1-c][1,4]benzodiazepine-3-carboxylic acid bis-(2-hydroxy-ethyl)-amide] is 0.61 µM; for `COc1cc(-c2ccccc2C)c(Cl)cc1C(=O)N1Cc2ccc(C(=O)N3CCN(CCO)CC3)n2Cc2ccccc21` [Example 39, {10-[(6-Chloro-3-methoxy-2′-methyl[1,1′-biphenyl]-4-yl)carbonyl]-10,11-dihydro-5H-pyrrolo[2,1-c][1,4]benzodiazepin-3-yl}[4-(2-hydroxyethyl)-1-piperazinyl]methanone] it is 0.383 µM. Consider `COC[C@@H](O)CN1CCN(C(=O)c2ccc3n2Cc2ccccc2N(C(=O)c2ccc(-c4ccccc4C(F)(F)F)c(C)c2)C3)CC1` [Example 9, [3-({4-[(2S)-2-Hydroxy-3-methoxypropyl]-1-piperazinyl}carbonyl)-5H-pyrrolo[2,1-c][1,4]benzodiazepin-10(11H)-yl][2-methyl-2′-trifluoromethyl-[1,1′-biphenyl]-4-yl]methanone], for which the IC50 in data set [1] amounted to 1.23 µM. For `COc1ccccc1-c1ccc(C(=O)N2Cc3ccc(C(=O)N(C)C[C@H](O)[C@@H](O)[C@H](O)[C@H](O)CO)n3Cc3ccccc32)cc1C` [Example 17, 10-[(2′-Methoxy-2-methyl-[1,1′-biphenyl]-4-yl)carbonyl]-10,11-dihydro-5H-pyrrolo[2,1-c][1,4]benzodiazepine-3-carboxylic acid methyl-[(2S,3R,4R, 5R)-2,3,4,5,6-pentahydroxy-hexyl)-amide], the IC50 in data set [1] turned out to be 0.144 µM. On to `Cc1cc(C(=O)N2Cc3ccc(C(=O)N(C)C[C@@H]4OC(=O)O[C@H]4[C@H](O)[C@H]4COC(=O)O4)n3Cc3ccccc32)ccc1-c1ccccc1C(F)(F)F` [Example 12, N-[((4S,5S)-5-{(R)-Hydroxy[(4R)-2-oxo-1,3-dioxolan-4-yl]methyl}-2-oxo-1,3-dioxolan-4-yl)methyl]-N-methyl-10-{[2-methyl-2′-(trifluoromethyl)[1,1′-biphenyl]-4-yl]carbonyl}-10,11-dihydro-5H-pyrrolo[2,1-c]benzodiazepine-3-carboxamide], for which, in data set [1], the IC50 is 0.763 µM. In turn, `O=C(c1ccc2n1Cc1ccccc1N(C(=O)c1ccc(-c3cccc4ccccc34)cc1Cl)C2)N1CCN(CCO)CC1` [Example 25, 2-{4-[10-{[2-Chloro-4-(naphthalen-1-yl)phenyl]carbonyl}-(10,11-dihydro-5H-pyrrolo[2,1-c][1,4]benzodiazepin-3-yl)carbonyl]piperazine-1-yl}-1-hydroxyethane] came in with an inhibition at 0.1 µM in data set [1] of 21%. As to `COc1ccccc1-c1ccc(C(=O)N2Cc3ccc(C(=O)N(C)CC(O)CO)n3Cc3ccccc32)cc1C` (stereo not drawn) [Example 14, 10-[(2′-Methoxy-2-methyl-[1,1′-biphenyl]-4-yl)carbonyl]-10,11-dihydro-5H-pyrrolo[2,1-c][1,4]benzodiazepine-3-carboxylic acid (2,3-dihydroxy-propyl)-methyl-amide], in data set [1], the 50% inhibitory concentration (IC50) came to 0.205 µM. In turn, `COc1ccccc1-c1ccc(C(=O)N2Cc3ccc(C(=O)N(C)C[C@@H](O)CO)n3Cc3ccccc32)cc1C` (single isomer, unassigned) [Example 16] registered an inhibition at 0.1 µM in data set [1] of 51%. On the same count and under the same terms, under `COc1cccc(-c2ccc(C(=O)N3Cc4ccc(C(=O)N5CCN(CCO)CC5)n4Cc4ccccc43)cc2OC)c1` [Example 50, {10-[(2,3′-Dimethoxy[1,1′-biphenyl]-4-yl)carbonyl]-10,11-dihydro-5H-pyrrolo[2,1-c][1,4]benzodiazepin-3-yl}[4-(2-hydroxyethyl)-1-piperazinyl]methanone] stands 16%; under `COc1cccc(-c2cc(OC)c(C(=O)N3Cc4ccc(C(=O)N5CCN(CCO)CC5)n4Cc4ccccc43)cc2Cl)c1` [Example 49, {10-[(6-Chloro-3,3′-dimethoxy[1,1′-biphenyl]-4-yl)carbonyl]-10,11-dihydro-5H-pyrrolo[2,1-c][1,4]benzodiazepin-3-yl}[4-(2-hydroxyethyl)-1-piperazinyl]methanone], 21%. In the case of `Cc1cc(C(=O)N2Cc3ccc(C(=O)N4CCN(C[C@@H](O)CO)CC4)n3Cc3ccccc32)ccc1-c1ccccc1C(F)(F)F` [Example 6, (2R)-3-{4-[(10-{[2-Methyl-2′-trifluoromethyl-[1,1′-biphenyl]-4-yl]carbonyl}-10,11-dihydro-5H-pyrrolo[2,1-c][1,4]benzodiazepin-3-yl)carbonyl]piperazin-1-yl}propane-1,2-diol], the concentration for half-maximal inhibition (IC50) in data set [1] was found to be 1.39 µM.
